This is an account of results in ChEMBL document CHEMBL1145364, “A novel artemisinin-quinine hybrid with potent antimalarial activity” (Bioorg Med Chem Lett, 2007).

What all share (format): functional, organism-based
Assay [1] relates to Plasmodium falciparum. Briefly: Antimalarial activity against chloroquine-resistant Plasmodium falciparum FcB1 after 48 hrs by pLDH assay. Conditions: FcB1, 48 h.
Assay [2] concerns Plasmodium falciparum. Briefly: Antimalarial activity against Plasmodium falciparum 3D7 after 48 hrs by pLDH assay. Conditions: 3D7, 48 h.
The subject of assay [3] is Plasmodium falciparum. Briefly: Antimalarial activity against chloroquine-resistant Plasmodium falciparum FcB1 after 72 hrs by pLDH assay. The note with it: FcB1, 72 h.
The test system of assay [4] is Plasmodium falciparum. Briefly: Antimalarial activity against Plasmodium falciparum 3D7 after 72 hrs by pLDH assay. The note with it: 3D7, 72 h.

On to `C[C@@H]1CC[C@H]2[C@@H](C)C(=O)O[C@@H]3O[C@@]4(C)CC[C@@H]1[C@]32OO4` [ARTEMISININ], for which the IC50 (as a rule, the midpoint of a concentration-inhibition curve) stood at 50 nM in the assay with Plasmodium falciparum [1], 49.4 nM in the assay with Plasmodium falciparum [2], 55 nM in the assay with Plasmodium falciparum [3] and 45.5 nM with Plasmodium falciparum [4].

Take `C=C[C@H]1CN2CC[C@H]1C[C@H]2[C@H](O)c1ccnc2ccc(OC)cc12` [QUININE]: the IC50 with Plasmodium falciparum [1] worked out at 96.8 nM; in the assay on Plasmodium falciparum [2], 149 nM; in the assay on Plasmodium falciparum [3], 75.3 nM; with Plasmodium falciparum [4], 73.5 nM.

Regarding `COc1ccc2nccc([C@@H](O)C3CC4CCN3CC4CC(=O)O[C@@H]3OC4O[C@]5(C)CCC6[C@H](C)CCC([C@H]3C)[C@@]46OO5)c2c1` (some centres not stated), the IC50 in the assay with Plasmodium falciparum [1] was 9.59 nM; with Plasmodium falciparum [2], 8.95 nM; in the assay with Plasmodium falciparum [3] it was 10.2 nM; in the assay on Plasmodium falciparum [4] it was 10.4 nM.
